Measured values as given in PubChem BioAssay AID2060494 (Molecular Pharmacology Branch, DTP, NCI, 2025).

Test system: 435261-313-R-J1-PDC complex spheroid viability
Assay: Anticancer human tumor 435261-313-R-J1-PDC patient-derived colon adenocarcinoma cell line growth inhibition [GQUAD]
Settings: for IC50: curve of first compound; for viability, T/C: stronger effect = lower value
Procedure, shortened: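 Viability of tumor cells grown as complex spheroids with endothelial and stromal cells, exposed to drug combinations. Top concentration at or near clinical Cmax (else 10 microM), diluted in half-log increments.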

[1] = second compound 0.0316 µM, first compound 0.0316 µM
[2] = second compound 0.0316 µM, first compound 0.1 µM
[3] = second compound 0.0316 µM, first compound 0.316 µM
[4] = second compound 0.0316 µM, first compound 1 µM
[5] = second compound 0.0316 µM, first compound 3.16 µM
[6] = second compound 0.0316 µM, first compound 10 µM
[7] = second compound 0.1 µM, first compound 0.0316 µM
[8] = second compound 0.1 µM, first compound 0.1 µM
[9] = second compound 0.1 µM, first compound 0.316 µM
[10] = second compound 0.1 µM, first compound 1 µM
[11] = second compound 0.1 µM, first compound 3.16 µM
[12] = second compound 0.1 µM, first compound 10 µM
[13] = second compound 0.316 µM, first compound 0.0316 µM
[14] = second compound 0.316 µM, first compound 0.1 µM
[15] = second compound 0.316 µM, first compound 0.316 µM
[16] = second compound 0.316 µM, first compound 1 µM
[17] = second compound 0.316 µM, first compound 3.16 µM
[18] = second compound 0.316 µM, first compound 10 µM
[19] = second compound 1 µM, first compound 0.0316 µM
[20] = second compound 1 µM, first compound 0.1 µM
[21] = second compound 1 µM, first compound 0.316 µM
[22] = second compound 1 µM, first compound 1 µM
[23] = second compound 1 µM, first compound 3.16 µM
[24] = second compound 1 µM, first compound 10 µM
[25] = second compound 3.16 µM, first compound 0.0316 µM
[26] = second compound 3.16 µM, first compound 0.1 µM
[27] = second compound 3.16 µM, first compound 0.316 µM
[28] = second compound 3.16 µM, first compound 1 µM
[29] = second compound 3.16 µM, first compound 3.16 µM
[30] = second compound 3.16 µM, first compound 10 µM
[31] = second compound 10 µM, first compound 0.0316 µM
[32] = second compound 10 µM, first compound 0.1 µM
[33] = second compound 10 µM, first compound 0.316 µM
[34] = second compound 10 µM, first compound 1 µM
[35] = second compound 10 µM, first compound 3.16 µM
[36] = second compound 10 µM, first compound 10 µM
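Also: spheroids exposed to the agents for seven days before readout.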
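For viability, T/C in this document: percent of vehicle control viability with DMSO wells as 100%.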

With Cc1cccc(N(C)C(=O)C2C(O)CCN2c2nc(C)cc(C(F)(F)F)c2C#N)c1 (stereo not drawn) + Cc1[nH]c2ccc(F)cc2c1-c1nc2c3cccnc3c3ncccc3c2[nH]1 the IC50 (second compound 0.0316 µM) was > 10000 nM, the IC50 (second compound 0.1 µM) was > 10000 nM and the IC50 (second compound 0.316 µM) was > 10000 nM. For the same compound, the IC50 (second compound 1 µM) was > 10000 nM, the IC50 (second compound 3.16 µM) was < 31.6 nM and the IC50 (second compound 10 µM) was < 31.6 nM. The viability, T/C [1] was 123%, the viability, T/C [2] was 111% and the viability, T/C [3] was 121%. For the same compound, the viability, T/C [4] was 91.4%, the viability, T/C [5] was 97.2% and the viability, T/C [6] was 92.3%. The viability, T/C [7] was 106%, the viability, T/C [8] was 141% and the viability, T/C [9] was 138%. For the same compound, the viability, T/C [10] was 135%, the viability, T/C [11] was 117% and the viability, T/C [12] was 113%. The viability, T/C [13] was 76.1%, the viability, T/C [14] was 105% and the viability, T/C [15] was 104%. The viability, T/C [16] was 104%, the viability, T/C [17] was 117% and the viability, T/C [18] was 115%. For the same compound, the viability, T/C [19] was 95.2%, the viability, T/C [20] was 86.7% and the viability, T/C [21] was 152%. It also gave a viability, T/C [22] of 129%, a viability, T/C [23] of 117% and a viability, T/C [24] of 59%. For the same compound, the viability, T/C [25] was 30.2%, the viability, T/C [26] was 41.4% and the viability, T/C [27] was 38.5%. It also gave a viability, T/C [28] of 44.9%, a viability, T/C [29] of 47.7% and a viability, T/C [30] of 42.9%. It also gave a viability, T/C [31] of 27.1%, a viability, T/C [32] of 27.7% and a viability, T/C [33] of 33.7%. For the same compound, the viability, T/C [34] was 27.1%, the viability, T/C [35] was 28.7% and the viability, T/C [36] was 23.5%.
In the case of Cn1ncnc1[C@H]1c2n[nH]c(=O)c3cc(F)cc(c23)N[C@@H]1c1ccc(F)cc1 + Cc1[nH]c2ccc(F)cc2c1-c1nc2c3cccnc3c3ncccc3c2[nH]1, the IC50 (second compound 0.0316 µM) is reported as > 316 nM, the IC50 (second compound 0.1 µM) is reported as > 316 nM and the IC50 (second compound 0.316 µM) is reported as > 316 nM. The IC50 (second compound 1 µM) was > 316 nM, the IC50 (second compound 3.16 µM) was < 0.999 nM and the IC50 (second compound 10 µM) was < 0.999 nM. It also gave a viability, T/C (second compound 0.0316 µM, first compound 0.000999 µM) of 125%, a viability, T/C (second compound 0.0316 µM, first compound 0.00316 µM) of 95.4% and a viability, T/C (second compound 0.0316 µM, first compound 0.00999 µM) of 87.6%. The viability, T/C [1] was 77.8%, the viability, T/C (second compound 0.0316 µM, first compound 0.0999 µM) was 93.9% and the viability, T/C [3] was 87%. The viability, T/C (second compound 0.1 µM, first compound 0.000999 µM) was 79.2%, the viability, T/C (second compound 0.1 µM, first compound 0.00316 µM) was 83.9% and the viability, T/C (second compound 0.1 µM, first compound 0.00999 µM) was 114%. For the same compound, the viability, T/C [7] was 101%, the viability, T/C (second compound 0.1 µM, first compound 0.0999 µM) was 99.5% and the viability, T/C [9] was 80.9%. For the same compound, the viability, T/C (second compound 0.316 µM, first compound 0.000999 µM) was 86.9%, the viability, T/C (second compound 0.316 µM, first compound 0.00316 µM) was 110% and the viability, T/C (second compound 0.316 µM, first compound 0.00999 µM) was 92.1%. It also gave a viability, T/C [13] of 71.7%, a viability, T/C (second compound 0.316 µM, first compound 0.0999 µM) of 82.9% and a viability, T/C [15] of 68.5%. For the same compound, the viability, T/C (second compound 1 µM, first compound 0.000999 µM) was 60.2%, the viability, T/C (second compound 1 µM, first compound 0.00316 µM) was 67.9% and the viability, T/C (second compound 1 µM, first compound 0.00999 µM) was 94.8%. It also gave a viability, T/C [19] of 72.2%, a viability, T/C (second compound 1 µM, first compound 0.0999 µM) of 60.3% and a viability, T/C [21] of 56.2%. It also gave a viability, T/C (second compound 3.16 µM, first compound 0.000999 µM) of 43.7%, a viability, T/C (second compound 3.16 µM, first compound 0.00316 µM) of 37.5% and a viability, T/C (second compound 3.16 µM, first compound 0.00999 µM) of 25.6%. The viability, T/C [25] was 38.6%, the viability, T/C (second compound 3.16 µM, first compound 0.0999 µM) was 31.8% and the viability, T/C [27] was 41.7%. It also gave a viability, T/C (second compound 10 µM, first compound 0.000999 µM) of 18.4%, a viability, T/C (second compound 10 µM, first compound 0.00316 µM) of 32.4% and a viability, T/C (second compound 10 µM, first compound 0.00999 µM) of 31.2%. The viability, T/C [31] was 22.7%, the viability, T/C (second compound 10 µM, first compound 0.0999 µM) was 22.6% and the viability, T/C [33] was 22.1%.
Nc1ccn(C2OC(CO)C(O)C2(F)F)c(=O)n1 (stereo not drawn) + Cc1[nH]c2ccc(F)cc2c1-c1nc2c3cccnc3c3ncccc3c2[nH]1 was tested, and the IC50 (second compound 0.0316 µM) was 161 nM, the IC50 (second compound 0.1 µM) was < 31.6 nM and the IC50 (second compound 0.316 µM) was < 31.6 nM. The IC50 (second compound 1 µM) was < 31.6 nM, the IC50 (second compound 3.16 µM) was < 31.6 nM and the IC50 (second compound 10 µM) was < 31.6 nM. The viability, T/C [1] was 74%, the viability, T/C [2] was 50.2% and the viability, T/C [3] was 47.9%. The viability, T/C [4] was 42%, the viability, T/C [5] was 57.9% and the viability, T/C [6] was 51.1%. The viability, T/C [7] was 53.2%, the viability, T/C [8] was 45.5% and the viability, T/C [9] was 42.1%. It also gave a viability, T/C [10] of 49.5%, a viability, T/C [11] of 50.3% and a viability, T/C [12] of 51.9%. The viability, T/C [13] was 39.5%, the viability, T/C [14] was 50% and the viability, T/C [15] was 46.3%. The viability, T/C [16] was 44%, the viability, T/C [17] was 48.1% and the viability, T/C [18] was 33.1%. The viability, T/C [19] was 50.4%, the viability, T/C [20] was 40.6% and the viability, T/C [21] was 42.1%. The viability, T/C [22] was 34.7%, the viability, T/C [23] was 41.8% and the viability, T/C [24] was 35.5%. It also gave a viability, T/C [25] of 26.7%, a viability, T/C [26] of 31.9% and a viability, T/C [27] of 25.5%. The viability, T/C [28] was 24.7%, the viability, T/C [29] was 28.9% and the viability, T/C [30] was 25.9%. It also gave a viability, T/C [31] of 16.3%, a viability, T/C [32] of 19.1% and a viability, T/C [33] of 18%. It also gave a viability, T/C [34] of 20.2%, a viability, T/C [35] of 15.7% and a viability, T/C [36] of 18.7%.
In the case of O=c1[nH]cc(F)c(=O)[nH]1 + Cc1[nH]c2ccc(F)cc2c1-c1nc2c3cccnc3c3ncccc3c2[nH]1, the IC50 (second compound 0.0316 µM) is reported as > 10000 nM, the IC50 (second compound 0.1 µM) is reported as > 10000 nM and the IC50 (second compound 0.316 µM) is reported as > 10000 nM. The IC50 (second compound 1 µM) was 464 nM, the IC50 (second compound 3.16 µM) was < 31.6 nM and the IC50 (second compound 10 µM) was < 31.6 nM. It also gave a viability, T/C [1] of 112%, a viability, T/C [2] of 72.3% and a viability, T/C [3] of 80.1%. The viability, T/C [4] was 74.5%, the viability, T/C [5] was 66.2% and the viability, T/C [6] was 64.9%. The viability, T/C [7] was 94.7%, the viability, T/C [8] was 84.2% and the viability, T/C [9] was 62%. It also gave a viability, T/C [10] of 72.1%, a viability, T/C [11] of 64.1% and a viability, T/C [12] of 61.3%. For the same compound, the viability, T/C [13] was 78.5%, the viability, T/C [14] was 66.5% and the viability, T/C [15] was 52.8%. The viability, T/C [16] was 65.3%, the viability, T/C [17] was 49.1% and the viability, T/C [18] was 56%. For the same compound, the viability, T/C [19] was 53.2%, the viability, T/C [20] was 75% and the viability, T/C [21] was 51.9%. It also gave a viability, T/C [22] of 47.9%, a viability, T/C [23] of 50.2% and a viability, T/C [24] of 40.6%. It also gave a viability, T/C [25] of 34.2%, a viability, T/C [26] of 27.4% and a viability, T/C [27] of 25.1%. For the same compound, the viability, T/C [28] was 26.7%, the viability, T/C [29] was 24.1% and the viability, T/C [30] was 27.7%. The viability, T/C [31] was 17.9%, the viability, T/C [32] was 25.7% and the viability, T/C [33] was 19%. For the same compound, the viability, T/C [34] was 19.3%, the viability, T/C [35] was 16.4% and the viability, T/C [36] was 21.3%.
